Key:
[1] = molecular target: Signal transducer and activator of transcription 3 (Homo sapiens, UniProt P40763); experiment: Binding affinity to STAT3 (unknown origin) assessed as dissociation constant by SPR assay
Histone deacetylase 2 = Histone deacetylase 2 (Homo sapiens, UniProt Q92769); experiment: Inhibition of recombinant human HDAC2 using Boc-Lys (acetyl)-AMC as substrate preincubated with compound for 1 hr followed by substrate addition and measured after 30 mins by microplate reader assay
A549 [2] = experiment: cells; format: functional, cell-based; details: Homo sapiens, A549, 72 h
Description: Antiproliferative activity against human A549 cells assessed as inhibition of cell proliferation incubated for 72 hrs by CCK-8 assay

Histone deacetylase 1 = Histone deacetylase 1 (Homo sapiens, UniProt Q13547); experiment: Inhibition of recombinant human HDAC1 using Boc-Lys (acetyl)-AMC as substrate preincubated with compound for 1 hr followed by substrate addition and measured after 30 mins by microplate reader assay
Histone deacetylase 3 = Histone deacetylase 3 (Homo sapiens, UniProt O15379); experiment: Inhibition of recombinant human HDAC3 using Boc-Lys (acetyl)-AMC as substrate preincubated with compound for 1 hr followed by substrate addition and measured after 30 mins by microplate reader assay
[3] = molecular target: T1, Protein deacetylase HDAC6 (Homo sapiens, UniProt Q9UBN7); experiment: Inhibition of recombinant human HDAC6 using Boc-Lys (acetyl)-AMC as substrate preincubated with compound for 1 hr followed by substrate addition and measured after 30 mins by microplate reader assay
T1 sequence (Q9UBN7 whole entry): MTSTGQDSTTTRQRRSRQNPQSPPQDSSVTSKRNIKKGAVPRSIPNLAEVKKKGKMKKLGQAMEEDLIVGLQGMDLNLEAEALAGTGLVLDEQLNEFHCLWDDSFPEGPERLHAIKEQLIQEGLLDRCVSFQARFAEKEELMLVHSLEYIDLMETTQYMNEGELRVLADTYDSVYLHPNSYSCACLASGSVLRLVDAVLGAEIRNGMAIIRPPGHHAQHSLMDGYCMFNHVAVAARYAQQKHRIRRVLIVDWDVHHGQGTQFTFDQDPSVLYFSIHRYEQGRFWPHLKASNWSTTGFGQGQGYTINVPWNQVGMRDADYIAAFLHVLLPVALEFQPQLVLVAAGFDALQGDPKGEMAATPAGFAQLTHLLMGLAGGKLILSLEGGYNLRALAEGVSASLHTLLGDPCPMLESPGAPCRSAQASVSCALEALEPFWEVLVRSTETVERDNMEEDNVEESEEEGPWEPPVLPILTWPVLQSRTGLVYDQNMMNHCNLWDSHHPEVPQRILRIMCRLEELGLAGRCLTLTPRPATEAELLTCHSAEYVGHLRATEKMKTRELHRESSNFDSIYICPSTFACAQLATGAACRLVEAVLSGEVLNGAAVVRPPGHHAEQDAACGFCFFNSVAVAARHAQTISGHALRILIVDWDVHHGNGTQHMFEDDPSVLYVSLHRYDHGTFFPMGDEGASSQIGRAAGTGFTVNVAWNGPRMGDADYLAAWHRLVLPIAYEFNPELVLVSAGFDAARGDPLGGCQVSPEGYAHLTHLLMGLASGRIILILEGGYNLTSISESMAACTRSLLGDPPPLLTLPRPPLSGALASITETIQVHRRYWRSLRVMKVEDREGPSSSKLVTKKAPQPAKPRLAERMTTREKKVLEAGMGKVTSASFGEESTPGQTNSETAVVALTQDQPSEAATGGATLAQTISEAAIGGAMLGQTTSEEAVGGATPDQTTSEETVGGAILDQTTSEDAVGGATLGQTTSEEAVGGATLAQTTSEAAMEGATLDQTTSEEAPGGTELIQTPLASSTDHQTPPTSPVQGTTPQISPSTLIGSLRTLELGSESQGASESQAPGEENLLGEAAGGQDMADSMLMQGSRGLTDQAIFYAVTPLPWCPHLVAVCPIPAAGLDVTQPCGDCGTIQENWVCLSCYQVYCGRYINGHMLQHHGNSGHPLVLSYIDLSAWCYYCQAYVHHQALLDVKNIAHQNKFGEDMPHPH

A549 [4] = experiment: Induction of apoptosis in human A549 cells assessed as viable cells at 2 uM incubated for 24 hrs by Annexin V-FITC/PI staining based flow cytometric analysis (reference value: 95.08%); format: functional
A549 [5] = experiment: Induction of apoptosis in human A549 cells assessed as early apoptotic cells at 2 uM incubated for 24 hrs by Annexin V-FITC/PI staining based flow cytometric analysis (reference value: 1.53%); format: functional
A549 [6] = experiment: In vivo antitumor activity against human A549 cells xenografted in female BALB/c nu/nu mouse assessed as tumor volume at 10 mg/kg, iv administered every 3 days and measured on 18 day relative to control; format: functional; details: time 3 day
A549 [7] = experiment: Induction of apoptosis in human A549 cells assessed as necrotic cells at 2 uM incubated for 24 hrs by Annexin V-FITC/PI staining based flow cytometric analysis (reference value: 1.20%); format: functional
A549 [8] = experiment: Induction of apoptosis in human A549 cells assessed as late apoptotic cells at 2 uM incubated for 24 hrs by Annexin V-FITC/PI staining based flow cytometric analysis (reference value: 2.18%); format: functional
HCT-116 = experiment: cells; details: Homo sapiens, HCT-116, 72 h
Description: Antiproliferative activity against human HCT-116 cells assessed as inhibition of cell proliferation incubated for 72 hrs by CCK-8 assay

HeLa = experiment: cells; format: functional, cell-based; details: Homo sapiens, 72 h
Description: Antiproliferative activity against human Hela cells assessed as inhibition of cell proliferation incubated for 72 hrs by CCK-8 assay

HepG2 = experiment: Antiproliferative activity against human HepG2 cells assessed as inhibition of cell proliferation incubated for 72 hrs by CCK-8 assay; format: functional, cell-based; details: HepG2, 72 h

Histone deacetylase 3, sequence (O15379 whole entry): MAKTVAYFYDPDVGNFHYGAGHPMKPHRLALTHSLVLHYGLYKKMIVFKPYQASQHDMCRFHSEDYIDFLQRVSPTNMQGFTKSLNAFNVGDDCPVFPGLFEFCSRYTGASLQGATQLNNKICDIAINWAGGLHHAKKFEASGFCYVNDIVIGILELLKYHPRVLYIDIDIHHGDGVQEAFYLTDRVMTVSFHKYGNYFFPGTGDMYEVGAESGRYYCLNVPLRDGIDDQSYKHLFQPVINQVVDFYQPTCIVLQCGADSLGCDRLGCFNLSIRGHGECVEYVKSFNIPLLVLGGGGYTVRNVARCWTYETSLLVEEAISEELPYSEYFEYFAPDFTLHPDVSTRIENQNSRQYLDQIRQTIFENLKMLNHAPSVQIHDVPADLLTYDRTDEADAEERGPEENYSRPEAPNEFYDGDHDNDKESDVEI
Histone deacetylase 1, sequence (Q13547 whole entry): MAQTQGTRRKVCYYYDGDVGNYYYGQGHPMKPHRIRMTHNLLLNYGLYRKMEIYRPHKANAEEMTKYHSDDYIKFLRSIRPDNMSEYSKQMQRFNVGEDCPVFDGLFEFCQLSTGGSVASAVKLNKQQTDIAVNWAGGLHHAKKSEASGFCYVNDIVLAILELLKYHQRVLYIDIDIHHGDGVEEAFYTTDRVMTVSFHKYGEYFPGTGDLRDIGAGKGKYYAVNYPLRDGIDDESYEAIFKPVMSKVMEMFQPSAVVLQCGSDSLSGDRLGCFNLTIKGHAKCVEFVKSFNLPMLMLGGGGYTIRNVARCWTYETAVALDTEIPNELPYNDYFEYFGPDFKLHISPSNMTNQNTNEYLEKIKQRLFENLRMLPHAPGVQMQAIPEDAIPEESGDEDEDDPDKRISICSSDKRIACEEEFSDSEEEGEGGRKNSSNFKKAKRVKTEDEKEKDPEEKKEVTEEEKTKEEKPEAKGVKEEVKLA
Histone deacetylase 2, sequence (Q92769 whole entry): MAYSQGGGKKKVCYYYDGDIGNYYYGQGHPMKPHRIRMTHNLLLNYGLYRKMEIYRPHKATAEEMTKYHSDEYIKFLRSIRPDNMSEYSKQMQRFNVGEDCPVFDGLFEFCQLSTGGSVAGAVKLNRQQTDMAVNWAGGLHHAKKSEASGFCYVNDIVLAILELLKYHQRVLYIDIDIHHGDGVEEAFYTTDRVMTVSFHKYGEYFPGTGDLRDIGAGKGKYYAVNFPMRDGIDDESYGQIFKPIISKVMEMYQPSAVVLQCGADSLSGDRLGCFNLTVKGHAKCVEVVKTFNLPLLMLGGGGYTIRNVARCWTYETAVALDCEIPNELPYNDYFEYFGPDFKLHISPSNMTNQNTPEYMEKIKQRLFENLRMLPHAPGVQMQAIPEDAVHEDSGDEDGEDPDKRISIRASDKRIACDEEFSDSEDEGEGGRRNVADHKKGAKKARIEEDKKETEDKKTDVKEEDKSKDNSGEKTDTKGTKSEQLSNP
Signal transducer and activator of transcription 3, sequence (P40763 whole entry): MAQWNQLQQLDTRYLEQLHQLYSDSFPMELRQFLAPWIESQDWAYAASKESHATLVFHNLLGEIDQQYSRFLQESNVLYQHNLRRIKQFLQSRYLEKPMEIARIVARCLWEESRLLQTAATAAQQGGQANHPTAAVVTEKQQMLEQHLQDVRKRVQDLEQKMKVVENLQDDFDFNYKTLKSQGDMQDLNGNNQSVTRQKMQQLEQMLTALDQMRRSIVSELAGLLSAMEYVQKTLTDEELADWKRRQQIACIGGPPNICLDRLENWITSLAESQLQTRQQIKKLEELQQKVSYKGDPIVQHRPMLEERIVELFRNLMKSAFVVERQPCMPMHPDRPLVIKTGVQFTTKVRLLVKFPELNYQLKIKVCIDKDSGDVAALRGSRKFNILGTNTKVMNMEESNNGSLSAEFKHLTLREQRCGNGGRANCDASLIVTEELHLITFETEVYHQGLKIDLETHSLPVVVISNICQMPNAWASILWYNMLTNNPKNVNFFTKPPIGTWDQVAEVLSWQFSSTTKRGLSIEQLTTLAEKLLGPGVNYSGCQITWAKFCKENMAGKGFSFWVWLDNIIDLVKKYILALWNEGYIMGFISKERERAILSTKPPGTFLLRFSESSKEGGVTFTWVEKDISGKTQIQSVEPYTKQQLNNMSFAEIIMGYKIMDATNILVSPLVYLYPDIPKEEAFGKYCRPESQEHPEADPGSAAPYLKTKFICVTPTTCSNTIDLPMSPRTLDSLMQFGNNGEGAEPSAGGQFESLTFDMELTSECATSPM

Row | SMILES | Kd [1] [nM] | IC50 (Histone deacetylase 2) [nM] | IC50 (A549 [2]) [nM] | IC50 (Histone deacetylase 1) [nM] | IC50 (Histone deacetylase 3) [nM] | IC50 [3] [nM] | Activity (A549 [4]) [%] | Activity (A549 [5]) [%] | Activity (A549 [6]) [%] | Activity (A549 [7]) [%] | Activity (A549 [8]) [%] | IC50 (HCT-116) [nM] | viability at 2 µM (A549 [4]; Homo sapiens, A549, read-out: Activity) [%] | IC50 (HeLa) [nM] | IC50 (HepG2) [nM]
1 | C=C1C(=O)O[C@@H]2C[C@@]3(C)CC[C@@H](OC(=O)[C@H](CC)NC(=O)c4ccc(C(=O)Nc5ccccc5N)cc4)C(=C)[C@@H]3C[C@H]12 | 22600 | > 1000 | > 10000 | > 1000 | > 1000 | > 1000 |  |  |  |  |  |  |  |  | 
2 | C=C1C(=O)O[C@@H]2C[C@@]3(C)CC[C@@H](OC(=O)[C@@H](Cc4ccccc4)NC(=O)c4ccc(C(=O)Nc5ccccc5N)cc4)C(=C)[C@@H]3C[C@H]12 | 4760 | > 1000 | 7470 | 622 | > 1000 | > 1000 |  |  |  |  |  |  |  |  | 
3 | C=C1C(=O)O[C@@H]2C[C@@]3(C)CC[C@@H](OC(=O)[C@H](C)NC(=O)c4ccc(C(=O)NO)cc4)C(=C)[C@@H]3C[C@H]12 | > 50000 | 844 | > 10000 | 568 | 441 | 267 |  |  |  |  |  |  |  |  | 
4 | C=C1C(=O)O[C@@H]2C[C@@]3(C)CC[C@@H](OC(=O)[C@@H](C)NC(=O)c4ccc(C(=O)NO)cc4)C(=C)[C@@H]3C[C@H]12 | 20100 | > 1000 | > 10000 | 748 | > 1000 | 162 |  |  |  |  |  |  |  |  | 
5 | C=C1C(=O)O[C@@H]2C[C@@]3(C)CC[C@@H](OC(=O)CNC(=O)c4ccc(C(=O)NO)cc4)C(=C)[C@@H]3C[C@H]12 | > 50000 | 189 | 2560 | 202 | 107 | 87.5 |  |  |  |  |  |  |  |  | 
6 | C=C1C(=O)O[C@@H]2C[C@@]3(C)CC[C@@H](OC(=O)[C@H](CC(C)C)NC(=O)c4ccc(C(=O)Nc5ccccc5N)cc4)C(=C)[C@@H]3C[C@H]12 | > 50000 | > 1000 | > 10000 | > 1000 | > 1000 | > 1000 |  |  |  |  |  |  |  |  | 
7 | C=C1C(=O)O[C@@H]2C[C@@]3(C)CC[C@@H](OC(=O)[C@@H](CC)NC(=O)c4ccc(C(=O)Nc5ccccc5N)cc4)C(=C)[C@@H]3C[C@H]12 | 20700 | > 1000 | 6670 | 6510 | > 1000 | > 1000 |  |  |  |  |  |  |  |  | 
8 | C=C1C(=O)O[C@@H]2C[C@@]3(C)CC[C@@H](OC(=O)[C@@H](C)NC(=O)c4cccc(/C=C/C(=O)NO)c4)C(=C)[C@@H]3C[C@H]12 | 13500 | 313 | 4330 | 197 | 103 | 86.9 |  |  |  |  |  |  |  |  | 
9 | C=C1C(=O)O[C@@H]2C[C@@]3(C)CC[C@@H](OC(=O)CNC(=O)c4ccc(C(=O)Nc5ccccc5N)cc4)C(=C)[C@@H]3C[C@H]12 | 39300 | > 1000 | > 10000 | > 1000 | > 1000 | > 1000 |  |  |  |  |  |  |  |  | 
10 | O=C(CCCCCCC(=O)Nc1ccccc1)NO [VORINOSTAT] | > 50000 |  |  |  |  |  | 67.04 | 5.72 | 61 | 2.58 | 24.68 | 1870 |  |  | 
11 | C=C1C(=O)O[C@@H]2C[C@@]3(C)CC[C@@H](OC(=O)[C@H](C)NC(=O)c4cccc(/C=C/C(=O)NO)c4)C(=C)[C@@H]3C[C@H]12 | 12300 | 404 | 4530 | 206 | 113 | 62.4 |  |  |  |  |  |  |  |  | 
12 | C=C1C(=O)O[C@@H]2C[C@@]3(C)CCCC(=C)[C@@H]3C[C@H]12 [ISOALANTOLACTONE] | 46100 | > 1000 | 1810 | > 1000 | > 1000 | > 1000 |  | 3.67 |  | 1.82 | 10.91 | 2610 | 83.6 | 4380 | 7250
13 | C=C1C(=O)O[C@@H]2C[C@@]3(C)CC[C@@H](OC(=O)[C@@H](C)NC(=O)c4ccc(C(=O)Nc5ccccc5N)cc4)C(=C)[C@@H]3C[C@H]12 | 4960 | 507 | 2240 | 122 | 473 | > 1000 |  |  |  |  |  |  |  |  | 
14 | C=C1C(=O)O[C@@H]2C[C@@]3(C)CC[C@@H](OC(=O)[C@H](Cc4ccccc4)NC(=O)c4ccc(C(=O)Nc5ccccc5N)cc4)C(=C)[C@@H]3C[C@H]12 | > 50000 | > 1000 | > 10000 | > 1000 | > 1000 | > 1000 |  |  |  |  |  |  |  |  | 
15 | C=C1C(=O)O[C@@H]2C[C@@]3(C)CC[C@@H](OC(=O)[C@@H](CC(C)C)NC(=O)c4ccc(C(=O)Nc5ccccc5N)cc4)C(=C)[C@@H]3C[C@H]12 | 6880 | > 1000 | 5610 | 453 | > 1000 | > 1000 |  |  |  |  |  |  |  |  | 
16 | C=C1C(=O)O[C@@H]2C[C@@]3(C)CC[C@@H](OC(=O)[C@@H](C)NC(=O)c4ccc(/C=C/C(=O)NO)cc4)C(=C)[C@@H]3C[C@H]12 | 3890 | 342 | 4530 | 193 | 272 | 64 |  |  |  |  |  |  |  |  | 
17 | C=C1C(=O)O[C@@H]2C[C@@]3(C)CC[C@@H](OC(=O)[C@@H](NC(=O)c4ccc(C(=O)Nc5ccccc5N)cc4)C(C)C)C(=C)[C@@H]3C[C@H]12 | 17400 | > 1000 | > 10000 | > 1000 | > 1000 | > 1000 |  |  |  |  |  |  |  |  | 
18 | C=C1C(=O)O[C@@H]2C[C@@]3(C)CC[C@@H](OC(=O)[C@H](C)NC(=O)c4ccc(C(=O)Nc5ccccc5N)cc4)C(=C)[C@@H]3C[C@H]12 | 8960 | > 1000 | 3340 | > 1000 | > 1000 | > 1000 |  |  |  |  |  |  |  |  | 
19 | C=C1C(=O)O[C@@H]2C[C@@]3(C)CC[C@@H](OC(=O)CNC(=O)c4cccc(/C=C/C(=O)NO)c4)C(=C)[C@@H]3C[C@H]12 |  | 92.7 | 1870 | 86.5 | 63.1 | 45.3 |  |  |  |  |  |  |  |  | 
20 | Nc1ccc(F)cc1NC(=O)c1ccc(CNC(=O)/C=C/c2cccnc2)cc1 | > 50000 | 212 | 6400 |  |  |  |  |  |  |  |  |  |  |  | 
21 | C=C1C(=O)O[C@@H]2C[C@@]3(C)CC[C@@H](OC(=O)[C@H](NC(=O)c4ccc(C(=O)Nc5ccccc5N)cc4)C(C)C)C(=C)[C@@H]3C[C@H]12 | > 50000 | > 1000 | > 10000 | > 1000 | > 1000 | > 1000 |  |  |  |  |  |  |  |  | 
